#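 Five concentrations, 48 hours, 96-well plates. TGI is the concentration that stops growth completely.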
# Columns and labels:
# Assay in all cases: NCI-60 cell line screen, 48 h
# MCF7 breast = tested on: MCF7 breast
# PC-3 prostate = tested on: PC-3 prostate
# U251 CNS = tested on: U251 CNS
# UACC-257 melanoma = tested on: UACC-257 melanoma
# T-47D breast = tested on: T-47D breast
# BT-549 breast = tested on: BT-549 breast
# RPMI-8226 leukemia = tested on: RPMI-8226 leukemia
# MDA-MB-435 = tested on: MDA-MB-435
# HCT-15 colon = tested on: HCT-15 colon
# SNB-75 CNS = tested on: SNB-75 CNS
# HT29 colon = tested on: HT29 colon
# HS 578T breast = tested on: HS 578T breast
# CCRF-CEM leukemia = tested on: CCRF-CEM leukemia
# M14 melanoma = tested on: M14 melanoma
# NCI-H460 lung = tested on: NCI-H460 lung
# SR leukemia = tested on: SR leukemia
# ACHN renal = tested on: ACHN renal
# K-562 leukemia = tested on: K-562 leukemia
# SN12C renal = tested on: SN12C renal
# MDA-N = tested on: MDA-N
# SW-620 colon = tested on: SW-620 colon
# OVCAR-5 ovarian = tested on: OVCAR-5 ovarian
# NCI-H23 lung = tested on: NCI-H23 lung
# HL-60(TB) leukemia = tested on: HL-60(TB) leukemia
# SK-OV-3 ovarian = tested on: SK-OV-3 ovarian
# MALME-3M melanoma = tested on: MALME-3M melanoma
# HCC-2998 colon = tested on: HCC-2998 colon
# SNB-19 CNS = tested on: SNB-19 CNS
# HOP-62 NSCLC = tested on: HOP-62 NSCLC
# IGROV1 ovarian = tested on: IGROV1 ovarian
# KM12 colon = tested on: KM12 colon
# SF-295 CNS = tested on: SF-295 CNS
# SF-268 CNS = tested on: SF-268 CNS
# OVCAR-3 ovarian = tested on: OVCAR-3 ovarian
# A549 NSCLC = tested on: A549 NSCLC
# NCI/ADR-RES ovarian = tested on: NCI/ADR-RES ovarian
# HCT-116 colon = tested on: HCT-116 colon
# OVCAR-8 ovarian = tested on: OVCAR-8 ovarian
# DU-145 prostate = tested on: DU-145 prostate
# 786-0 renal = tested on: 786-0 renal
# HOP-92 NSCLC = tested on: HOP-92 NSCLC
# UACC-62 melanoma = tested on: UACC-62 melanoma
# EKVX NSCLC = tested on: EKVX NSCLC
# NCI-H226 lung = tested on: NCI-H226 lung
# UO-31 renal = tested on: UO-31 renal
# MOLT-4 leukemia = tested on: MOLT-4 leukemia
# SK-MEL-5 melanoma = tested on: SK-MEL-5 melanoma
# SF-539 CNS = tested on: SF-539 CNS
# MDA-MB-231 breast = tested on: MDA-MB-231 breast
# COLO 205 colon = tested on: COLO 205 colon
# CAKI-1 renal = tested on: CAKI-1 renal
# TK-10 renal = tested on: TK-10 renal
# A498 renal = tested on: A498 renal
# NCI-H522 lung = tested on: NCI-H522 lung
# OVCAR-4 ovarian = tested on: OVCAR-4 ovarian
# SK-MEL-28 melanoma = tested on: SK-MEL-28 melanoma
# LOX IMVI melanoma = tested on: LOX IMVI melanoma
# RXF 393 renal = tested on: RXF 393 renal
# SK-MEL-2 melanoma = tested on: SK-MEL-2 melanoma
structure (smiles),measurement,setting,value
COc1cc(COC(=O)N2CSCC2C(=O)O)c([N+](=O)[O-])cc1OC (centres undefined),TGI,MCF7 breast,> 100 µM
same,TGI,PC-3 prostate,> 100 µM
same,TGI,U251 CNS,> 100 µM
same,TGI,UACC-257 melanoma,> 100 µM
same,TGI,T-47D breast,> 100 µM
same,TGI,BT-549 breast,> 100 µM
same,TGI,RPMI-8226 leukemia,> 100 µM
same,TGI,MDA-MB-435,> 100 µM
same,TGI,HCT-15 colon,> 100 µM
same,TGI,SNB-75 CNS,> 100 µM
same,TGI,HT29 colon,> 100 µM
same,TGI,HS 578T breast,> 100 µM
same,TGI,CCRF-CEM leukemia,> 100 µM
same,TGI,M14 melanoma,> 100 µM
same,TGI,NCI-H460 lung,> 100 µM
same,TGI,SR leukemia,> 100 µM
same,TGI,ACHN renal,> 100 µM
same,TGI,K-562 leukemia,> 100 µM
same,TGI,SN12C renal,> 100 µM
same,TGI,MDA-N,> 100 µM
same,TGI,SW-620 colon,> 100 µM
same,TGI,OVCAR-5 ovarian,> 100 µM
same,TGI,NCI-H23 lung,> 100 µM
same,TGI,HL-60(TB) leukemia,> 100 µM
same,TGI,SK-OV-3 ovarian,> 100 µM
same,TGI,MALME-3M melanoma,> 100 µM
same,TGI,HCC-2998 colon,> 100 µM
same,TGI,SNB-19 CNS,> 100 µM
same,TGI,HOP-62 NSCLC,> 100 µM
same,TGI,IGROV1 ovarian,> 100 µM
same,TGI,KM12 colon,> 100 µM
same,TGI,SF-295 CNS,> 100 µM
same,TGI,SF-268 CNS,> 100 µM
same,TGI,OVCAR-3 ovarian,> 100 µM
same,TGI,A549 NSCLC,> 100 µM
same,TGI,NCI/ADR-RES ovarian,> 100 µM
same,TGI,HCT-116 colon,> 100 µM
same,TGI,OVCAR-8 ovarian,> 100 µM
same,TGI,DU-145 prostate,> 100 µM
same,TGI,786-0 renal,> 100 µM
same,TGI,HOP-92 NSCLC,> 100 µM
same,TGI,UACC-62 melanoma,> 100 µM
same,TGI,EKVX NSCLC,> 100 µM
same,TGI,NCI-H226 lung,> 100 µM
same,TGI,UO-31 renal,> 100 µM
same,TGI,MOLT-4 leukemia,> 100 µM
same,TGI,SK-MEL-5 melanoma,> 100 µM
same,TGI,SF-539 CNS,> 100 µM
C=Cc1c(C)c(O)cc2c1-c1ccc(O)c(C)c1CC2,TGI,MCF7 breast,38.9 µM
same,TGI,U251 CNS,34.3 µM
same,TGI,UACC-257 melanoma,28 µM
same,TGI,T-47D breast,27.1 µM
same,TGI,BT-549 breast,59.7 µM
same,TGI,RPMI-8226 leukemia,56.6 µM
same,TGI,MDA-MB-435,28.2 µM
same,TGI,HCT-15 colon,44.5 µM
same,TGI,HT29 colon,53.2 µM
same,TGI,HS 578T breast,21.7 µM
same,TGI,CCRF-CEM leukemia,40.6 µM
same,TGI,MDA-MB-231 breast,60.6 µM
same,TGI,M14 melanoma,52.5 µM
same,TGI,NCI-H460 lung,45 µM
same,TGI,SR leukemia,17.7 µM
same,TGI,ACHN renal,81.1 µM
same,TGI,SN12C renal,43.1 µM
same,TGI,MDA-N,36.6 µM
same,TGI,SW-620 colon,54.6 µM
same,TGI,OVCAR-5 ovarian,> 100 µM
same,TGI,NCI-H23 lung,41.3 µM
same,TGI,HL-60(TB) leukemia,38.6 µM
same,TGI,COLO 205 colon,41.8 µM
same,TGI,SK-OV-3 ovarian,36.2 µM
same,TGI,CAKI-1 renal,46.2 µM
same,TGI,MALME-3M melanoma,45.9 µM
same,TGI,HCC-2998 colon,35.3 µM
same,TGI,SNB-19 CNS,74.5 µM
same,TGI,HOP-62 NSCLC,83.8 µM
same,TGI,IGROV1 ovarian,35.6 µM
same,TGI,KM12 colon,30 µM
same,TGI,TK-10 renal,41.4 µM
same,TGI,SF-295 CNS,32.2 µM
same,TGI,A498 renal,27.7 µM
same,TGI,SF-268 CNS,63.5 µM
same,TGI,OVCAR-3 ovarian,> 100 µM
same,TGI,A549 NSCLC,55.7 µM
same,TGI,NCI/ADR-RES ovarian,71.8 µM
same,TGI,HCT-116 colon,28.4 µM
same,TGI,OVCAR-8 ovarian,39.4 µM
same,TGI,DU-145 prostate,28.5 µM
same,TGI,NCI-H522 lung,43.1 µM
same,TGI,786-0 renal,34 µM
same,TGI,OVCAR-4 ovarian,92 µM
same,TGI,HOP-92 NSCLC,54.5 µM
same,TGI,UACC-62 melanoma,23.1 µM
same,TGI,EKVX NSCLC,24.3 µM
same,TGI,SK-MEL-28 melanoma,31.5 µM
same,TGI,LOX IMVI melanoma,31.8 µM
same,TGI,NCI-H226 lung,43 µM
same,TGI,RXF 393 renal,30.2 µM
same,TGI,UO-31 renal,32.2 µM
same,TGI,MOLT-4 leukemia,30.6 µM
same,TGI,SK-MEL-2 melanoma,35.5 µM
same,TGI,SK-MEL-5 melanoma,33 µM
same,TGI,SF-539 CNS,29.3 µM

# From PubChem BioAssay (NCI)
